Test results from article PMC7070407, “Moringin, A Stable Isothiocyanate from Moringa oleifera, Activates the Somatosensory and Pain Receptor TRPA1 Channel In Vitro” (Molecules, 2020).

Target: T1, rat TRPA1 (Rattus norvegicus, UniProt Q6RI86)
T1 construct: expressed in transfected cells; host or cells: HEK-293
Test: Elevation of intracellular Ca2+ (Fluo-4) in HEK-293 cells stably transfected with rat TRPA1; agonist and antagonist/desensitizing behaviour
Type: cell-based
Conditions: AP18 at 50 μM, 5 min pre-incubation, rTRPA1-HEK-293
Protocol: Assay of rat TRPA1, TRPV2, TRPV3, TRPV4, TRPM8 or human TRPV1 mediated elevation of intracellular Ca^2+ in transfected HEK-293 cells are been performed as described. Briefly, human embryonic kidney (HEK-293) cells, stably transfected with rat TRPA1, TRPV2, TRPV3, TRPV4, TRPM8 or human TRPV1 (selected by Geneticin 600 μg mL^−1) or not transfected, were cultured in EMEM + 2 mM Glutamine + 1% Non-Essential Amino Acids (NEAA) + 10% FBS and maintained at 37 °C with 5% CO2. Stable transfections were checked by quantitative real-time polymerase chain reaction (PCR), quantitative real-time PCR was performed by an iCycler-iQ (Bio-Rad, Hercules, CA, USA) in a 20 μL reaction mixture containing the following: 10 μL iQ SYBR Green Supermix 2X (Bio-Rad), 20 ng of cDNA (calculated on the basis of the retro-transcribed RNA), and 330 nM for each primer. Optimized primers for SYBR Green analysis (and relative TaOpt) and optimum annealing temperatures were designed by Allele-Id software version 7.0 (Biosoft International, Palo Alto, CA, USA) and were synthesized (HPLC-purification grade) by MWG-Biotech AG (Ebersberg, Germany). Assays were performed in quadruplicate (maximal ΔCt of replicate samples, <0.5). Relative expression analysis, correct for PCR efficiency and normalized with respect to reference genes β-actin and glyceraldehyde 3-phosphate dehydrogenase, was performed by GENEX software (Bio-Rad). […] The day of the experiment the cells were loaded with Fluo-4 AM (4 μM in DMSO containing 0.02% Pluronic F-127) for 1 h in the dark at room temperature, rinsed and resuspended in Tyrode’s solution (145 mM NaCl, 2.5 mM KCl, 1.5 mM CaCl2, 1.2 mM MgCl2, 10 mM D-glucose, and 10 mM HEPES, pH 7.4), finally transferred to a quartz cuvette of a spectrofluorimeter (Perkin-Elmer LS50B; λEX = 488 nm, λEM = 516 nm) equipped with PTP-1 Fluorescence Peltier System (PerkinElmer Life and Analytical Sciences, Waltham, MA, USA) under continuous stirring. Cell fluorescence before and after the addition of various concentrations of test compounds and extracts were measured normalizing the effects against the response to ionomycin (4 µM). The values of the effect on [Ca^2+]i in HEK-293 cells not transfected are used as baseline and subtracted from the values obtained from transfected cells. […] The potency of the compounds (EC50 values) are determined as the concentration required to produce half-maximal increases in [Ca^2+]i. In TRPV3 assay TRPV3-expressing HEK293 cells were first sensitized with the structurally unrelated agonist 2-aminoethoxydiphenyl borate (100 μM). Antagonist/desensitizing behaviour is evaluated against the agonist of the TRP analyzed by adding the compounds directly in the quartz cuvette 5 min before stimulation of cells with the agonist. […] In order to assess functional antagonism of TRPA1 channels, AP18, 4-(4-chlorophenyl)-3-methyl-3-buten-2-one oxime […] Dose-response curve fitting (sigmoidal dose-response variable slope) and parameter estimation were performed with Graph-Pad Prism8® (GraphPad Software Inc., San Diego, CA, USA). All determinations were performed at least in triplicate.

T1 sequence (Q6RI86 whole entry): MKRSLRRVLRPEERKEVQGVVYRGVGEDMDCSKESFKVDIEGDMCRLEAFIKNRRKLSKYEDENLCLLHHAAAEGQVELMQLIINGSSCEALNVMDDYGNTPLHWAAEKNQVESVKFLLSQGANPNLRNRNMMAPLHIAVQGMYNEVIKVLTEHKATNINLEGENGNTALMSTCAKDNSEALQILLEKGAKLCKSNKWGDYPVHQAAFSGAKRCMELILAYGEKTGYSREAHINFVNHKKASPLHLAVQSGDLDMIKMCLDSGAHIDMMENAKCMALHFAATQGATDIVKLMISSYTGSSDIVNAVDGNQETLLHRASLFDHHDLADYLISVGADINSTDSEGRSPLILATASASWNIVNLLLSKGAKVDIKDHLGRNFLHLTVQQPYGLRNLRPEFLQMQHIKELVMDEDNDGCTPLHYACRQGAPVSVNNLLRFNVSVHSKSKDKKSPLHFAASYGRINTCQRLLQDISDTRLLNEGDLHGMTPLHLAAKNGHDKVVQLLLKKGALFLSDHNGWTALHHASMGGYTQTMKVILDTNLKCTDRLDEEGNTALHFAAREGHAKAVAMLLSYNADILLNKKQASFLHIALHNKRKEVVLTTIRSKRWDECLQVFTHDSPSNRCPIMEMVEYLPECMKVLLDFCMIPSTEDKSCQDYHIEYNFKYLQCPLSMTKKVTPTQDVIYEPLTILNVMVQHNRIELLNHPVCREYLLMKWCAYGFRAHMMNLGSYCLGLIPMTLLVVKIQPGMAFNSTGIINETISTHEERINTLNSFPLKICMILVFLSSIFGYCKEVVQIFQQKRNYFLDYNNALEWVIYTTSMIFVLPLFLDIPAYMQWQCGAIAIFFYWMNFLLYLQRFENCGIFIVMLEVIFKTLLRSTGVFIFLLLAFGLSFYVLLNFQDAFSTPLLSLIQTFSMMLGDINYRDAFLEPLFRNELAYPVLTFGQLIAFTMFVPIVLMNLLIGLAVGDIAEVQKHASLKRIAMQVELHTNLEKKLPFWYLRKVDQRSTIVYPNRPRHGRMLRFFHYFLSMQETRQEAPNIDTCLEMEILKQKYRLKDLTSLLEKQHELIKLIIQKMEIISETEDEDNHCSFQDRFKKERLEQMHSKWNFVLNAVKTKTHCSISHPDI

Structure (SMILES): CC(=Cc1ccc(Cl)cc1)C(C)=NO [AP18, 4-(4-chlorophenyl)-3-methyl-3-buten-2-one oxime, reference compound]
- Reduction of elevation of intracellular Ca2+ induced by AITC (100 μM): 68.6 ± 3.0%
- Reduction of elevation of intracellular Ca2+ induced by moringin (10 μM): 64.1 ± 2.7%
